# Experiment: NMR check of guest exchange in a sealed tube heated to 150° C.
# Format: physicochemical
# Conditions: sealed NMR tube heated to 150° C., about 1.4 atmospheres, d^6-acetone
# Procedure: Nuclear magnetic resonance (NMR) spectroscopic investigations were carried out to verify the existence of the spheroidal hexamer in solution. […] FIG. […] The enlarged inset in FIG. 3 is the region of the spectrum displaying the methanol resonances. The peak assignments a, b, and c in the enlarged inset are for diaryl C—H, CH3 of the methanol guest, and CH3 of the methanol in the bulk solvent, respectively. Peak assignments d, e, and f are for the CH2 moiety adjacent to CH in the bridging group, the remaining CH2 groups, and the terminal CH3 group, respectively, on the R substituent. Peak g is the TMS internal standard.
# The most significant features in the spectrum of FIG. 3 are the two methanol peaks, b and c, indicating, respectively, the methanol trapped within the hexameric spheroidal assembly and the methanol in the bulk solvent. Similar work was carried out in d^6-acetone, d^6-dimethyl sulfoxide, and d^8-toluene.
substance,measurement,value
C-tridecylpyrogallol(4)arene,stability of guest/host assembly (methanol guest does not exchange with bulk solvent),stable

# — US20030073872A1, “Hexameric complexes and their preparation” (priority 2001, published 2003)
